This is an account of results in patent publication US4845123A, “Reduction in vivo of the inappropriate levels of endogenous and environmental-derived compounds by sustained-release inhibitors of β- g” (priority 1985, dated 1989).

Entries after “also recorded” stand apart in the source; their conditions may differ.

Data set [1] has as its system 60 kd oncofetal protein. The note with it: rat, in vivo; for Plasma concentration of the 60 kd protein at 21 days post-treatment with PAH: ip.
For data set [2], the system named is 60 kd oncofetal protein. The data set can be described thus: effect of β-glucuronidase inhibitors on carcinogen induction of the 60 kd factor in plasma (cell-free RNA transport assay). Format: in vivo, rat. Conditions: rat, in vivo.
For data set [3] the following is noted: rat, in vivo, iv, cited from earlier work.
In a further data set the test system is bladder tumor. Conditions: rat, in vivo; cited from earlier work.
Another data set deals with bladder tumors. The note with it: human, in vivo; cited from earlier work.
For the next data set, the system named is bladder cancer. Conditions: dog, in vivo; cited from earlier work.
A further data set has as its system β-glucuronidase. The note with it: cited from earlier work.
A further data set concerns the target T1, serum β-glucuronidase (Rattus norvegicus, UniProt P06760).
T1 sequence (P06760 23-648): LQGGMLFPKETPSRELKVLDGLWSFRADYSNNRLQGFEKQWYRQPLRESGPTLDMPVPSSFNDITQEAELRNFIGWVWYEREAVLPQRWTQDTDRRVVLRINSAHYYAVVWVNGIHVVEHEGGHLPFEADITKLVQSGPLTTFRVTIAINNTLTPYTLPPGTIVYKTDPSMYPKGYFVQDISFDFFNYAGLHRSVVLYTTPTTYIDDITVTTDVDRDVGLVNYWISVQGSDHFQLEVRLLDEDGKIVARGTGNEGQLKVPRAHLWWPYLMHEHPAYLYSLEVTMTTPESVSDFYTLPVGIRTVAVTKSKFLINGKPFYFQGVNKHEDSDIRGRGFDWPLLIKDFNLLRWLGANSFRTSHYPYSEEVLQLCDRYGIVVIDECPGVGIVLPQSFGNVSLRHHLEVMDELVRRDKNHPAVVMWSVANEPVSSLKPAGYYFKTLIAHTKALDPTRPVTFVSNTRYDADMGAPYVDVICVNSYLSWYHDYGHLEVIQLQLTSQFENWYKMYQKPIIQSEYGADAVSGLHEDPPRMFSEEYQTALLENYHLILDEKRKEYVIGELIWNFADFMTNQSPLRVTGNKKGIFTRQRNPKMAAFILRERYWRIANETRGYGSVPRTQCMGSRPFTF
The data set can be described thus: in vivo. In kind it is in vivo. Conditions: rat, in vivo. As to the method: GL was synthesized and microencapsulated to give sustained-release GL (EGL), by an established procedure used to microencapsulate ascorbic acid, as reported in Samejima, M. et al., Chem. Pharm. Bull., (Tokyo) 1982, 30:2894-2899. In this procedure, the GL as a fine powder is added to a stirred mixture of cyclohexane, polyisobutylene as coacervation-inducing agent and ethylcellulose as wall-forming material. The addition of GL is at 78° C., then phase separation is induced by lowering the temperature first to 40° C., then to 25° C. The microcapsules, which have thick walls, are washed with cyclohexane and dried. […] DAGDL, calcium D-glucarate (CGT), and potassium hydrogen D-glucarate (PGT) were synthesized. For comparison of efficacy of the inhibitors, 1,5 mmoles/kg (GL, EGL or DAGDL) or 4.5 mmoles/kg (CGT or PGT) of the inhibitor in 1.0 ml of sesame oil or vehicle only (controls) was administered to rats by stomach tube at zero time. Blood samples were obtained from different rats by cardiac puncture under ether anesthesia. The serum was prepared and assayed for β-glucuronidase activity using a commerical diagnostic kit sold by Sigma Chemical Company, St. Louis, MO. The assay is based on the hydrolysis of phenolphthalein-glucuronide and quantitation of phenolphthalein in alkaline medium at […]. For tests of anti-carcinogencity, the inhibitors were administered by stomach tube in 1.0 ml of sesame oil 30 minutes before and again at 2.5 hours after the carcinogen, for DAGDL, or 3 hours and 30 minutes before the carcinogen, for EGL, CGT, and PGT. The controls received sesame oil only by stomach tube.
At the time periods indicated above blood samples were obtained from rats under ether aneathesia by cardiac puncture, the serum was then prepared and assayed for β-glucuronidase activity using a commercial diagnostic kit sold by Sigma Chem. Co., St. Louis, MO.
For the inhibition of the initiation stage, CGT was given by gavage in two doses (4.5 mmoles/kg/dose) at 3 hours and again at 0.5 hours before carcinogen administration. […] The concentrations of CGT were incorporated into the powdered chow diet. The blood samples were obtained 10 days after the initiation of the CGT feeding.
DAGDL or GL (1.5 mmol/kg) in 1.0 ml of sesame oil, or vehicle only (controls) was administered to rats by stomach tube at zero time. […] The serum was prepared and assayed for β-glucuronidase activity using a commercial diagnostic kit sold by Sigma Chemical Company, St. Louis, MO. The assay is based on the hydrolysis of phenolphthalein-glucuronide and quantitation of phenolphtalein in alkaline medium at 550 nm.

The conditions of data set [4]: in vivo; cited from earlier work.
For data set [5] the following is noted: equilibrated aqueous solution; cited from earlier work.

Turning to `CNNC` [1,2-Dimethylhydrazine, 1,2-dimethylhydrazine], in the data set on 60 kd oncofetal protein [1], the “Treatment -I: total concentration of 60 kd factor induced by the carcinogen” value (“Treatment -I: total concentration” below) was 5.40.

As for `O=[N+]([O-])c1ccc2ccc3cccc4ccc1c2c34` [1-Nitropyrene, reference compound], the “overall inhibition of PAH-mediated carcinogenesis, as inhibition of 60 kd oncofetal protein induction” value (shortened to “overall inhibition”) in the data set with 60 kd oncofetal protein [2] is on record as 50%. The “Plasma concentration of the 60 kd protein at 21 days post-treatment with PAH” value (from here on “Plasma concentration”) in the data set with 60 kd oncofetal protein [1] is given as 5.30 units. Turning to `CC(=O)Nc1ccc2c(c1)Cc1ccccc1-2` [2-Acetyalaminofluorine, 2-acetylaminofluorene], the “Treatment -I: total concentration” value with 60 kd oncofetal protein [1] stood at 5.11. For `Cc1c2ccccc2c(C)c2c1ccc1ccc(F)cc12` [2-Fluoro-7,12-dimethylbenz[a]anthracene], in the data set on 60 kd oncofetal protein [1], the “Plasma concentration” value came out at 0.0. In the case of `Nc1ccc2ccccc2c1` [2-Naphthylamine, 2-naphthylamine], in the data set with 60 kd oncofetal protein [1], the “Treatment -I: total concentration” value is 3.29. In the case of `Cc1ccc2cc3c(ccc4ccccc43)c3c2c1CC3` [3-Methylcholanthrene, 3-methyl-1,2-dihydrobenz[j]aceanthrylene], the “overall inhibition” value in the data set with 60 kd oncofetal protein [2] is reported as 50%. In addition, in the data set on 60 kd oncofetal protein [1], the “Treatment -I: total concentration” value turned out to be 5.62 and the “Plasma concentration” value turned out to be 6.82. With `Cc1c2ccccc2c(C)c2c1ccc1ccccc12` [7,12-Dimethylbenz[a]anthracene, 7,12-dimethylbenz[a]anthracene], in the data set with 60 kd oncofetal protein [2], the “overall inhibition” value was 75%. In addition, the “Plasma concentration” value in the data set on 60 kd oncofetal protein [1] was determined as 6.42. In the case of `COc1cc2c(c3oc(=O)c4c(c13)CCC4=O)[C@@H]1C=CO[C@@H]1O2` [Aflatoxin B1, aflatoxin B1], in the data set with 60 kd oncofetal protein [1], the “Treatment -I: total concentration” value was determined as 4.37.

Consider `COc1cc2c(c3oc(=O)c4c(c13)CCOC4=O)[C@@H]1CCO[C@@H]1O2` [Aflatoxin G2, aflatoxin G2], for which the “Treatment -I: total concentration” value with 60 kd oncofetal protein [1] was determined as 3.80. With `c1ccc2cc3ccccc3cc2c1` [Anthracene], the “Plasma concentration” value with 60 kd oncofetal protein [1] is given as 0.0. For the compound `c1ccc2cc3c(ccc4ccccc43)cc2c1` [Benz[a]anthracene], the “Plasma concentration” value in the data set on 60 kd oncofetal protein [1] turned out to be 4.92. With `c1ccc2c(c1)cc1ccc3cccc4ccc2c1c34` [Benzo[a]pyrene], the “overall inhibition” value in the data set with 60 kd oncofetal protein [2] worked out at 75%. Further, the “dose excreted in bile” value in data set [3] (6 h) is given as ~60%. For the same compound, in data set [3], the “biliary metabolites being glucuronides” value was 40%. Also, in the data set with 60 kd oncofetal protein [1], the “Treatment -I: total concentration” value was found to be 7.73 and the “Plasma concentration” value was 7.73. Regarding `c1ccc2c(c1)c1cccc3ccc4cccc2c4c31` [Benzo[e]pyrene], the “Plasma concentration” value with 60 kd oncofetal protein [1] was 3.37. As to `c1ccc2c(c1)Cc1ccccc1-2` [Fluorene], the “Plasma concentration” value in the data set with 60 kd oncofetal protein [1] stood at 0.0 units. Turning to `O=C(O)[C@@H](O)[C@H]1OC(=O)[C@H](O)[C@H]1O` [GL, D-glucaro-1,4-lactone, reference compound], the “effect on 2-acetylaminofluorene carcinogenesis” value in the data set with bladder tumor is “unsuccessful”. In the data set on bladder tumors, the “clinical effect in prevention of bladder tumors” value is reported as “failed to show any clear beneficial effects”. Moreover, the “prevention of bladder cancer induced with 2-naphthylamine” value in the data set on bladder cancer is recorded as “without any success”. Further, the “inhibition of β-glucuronidase in vitro” value in the data set on β-glucuronidase was “potent inhibitor”. Besides, on serum β-glucuronidase, the “depression of serum β-glucuronidase” value is “approximately 50%”, the “reversibility of inhibition by prolonged dialysis” value is “could be reversed” and the “time-course of serum β-glucuronidase inhibition” value was “only a transient inhibition; also recorded: transient nature of the inhibition”. For the same compound, in data set [4], the “administered compound excreted unchanged in urine” value is “less than 50%”; the “rate of metabolism and excretion” value is given as “rapidly metabolized”. With `CCCCN(CCCC)N=O` [N--Nitrosodibutylamine, N-nitroso-N,N-dibutylamine], the “Treatment -I: total concentration” value in the data set with 60 kd oncofetal protein [1] worked out at 5.44. `CCN(CC)N=O` [N--Nitrosodiethylamine, N-nitroso-N, N-diethylamine]: in the data set on 60 kd oncofetal protein [1], the “Treatment -I: total concentration” value came to 4.21. For `CN(C)N=O` [N--Nitrosodimethylamine, N-nitroso-N,N-dimethylamine], the “Treatment -I: total concentration” value in the data set on 60 kd oncofetal protein [1] was 3.40.

`CCN(N=O)C(N)=O` [N--Nitrosoethylurea, N-nitroso-N-ethylurea]: the “Treatment -I: total concentration” value with 60 kd oncofetal protein [1] was 4.50. Regarding `CN(N=O)C(N)=O` [N--Nitrosomethylurea, N-nitroso-N-methylurea], in the data set on 60 kd oncofetal protein [1], the “60 kd factor in plasma, MNU without inhibitor” value was found to be 4.6 and the “Treatment -I: total concentration” value was 4.69.

As for `O=C(O)[C@@H](O)[C@@H](O)[C@H](O)[C@@H](O)C(=O)[O-].[K+]` [PGT, potassium hydrogen D-glucarate], the “time-course of serum β-glucuronidase inhibition” value at serum β-glucuronidase is reported as “prolonged inhibition”. In addition, in the data set with 60 kd oncofetal protein [2], the “Percent Inhibition of the induction of the 60 kd factor” value is 65% and the “Treatment +I: total concentration of 60 kd factor” value came to 2.25.

For the compound `c1cc2ccc3cccc4ccc(c1)c2c34` [Pyrene], in the data set with 60 kd oncofetal protein [1], the “Plasma concentration” value is 0.0. On to `C=CCc1ccc2c(c1)OCO2` [Safrole, safrole], for which, in the data set on 60 kd oncofetal protein [1], the “Treatment -I: total concentration” value is on record as 5.90. On to `O=C(O)[C@@H](O)[C@@H](O)[C@H](O)[C@@H](O)C(=O)O` [glucarate], for which the “fraction of glucarate converted to GL” value in data set [5] is “approximately one-third”.
